Experimental data from patent US8178509B2, “Method to treat sickle cell disease” (University of Virginia Patent Foundation, priority 2006, dated 2012).

Columns and labels:
[1] = tested on: C57BL/6 MAECs; experiment: Static WEHI monocyte adhesion assay on murine aortic endothelial cells; type: cell-based, C57BL/6 mice; conditions: murine TNFα 10 U/ml, positive control
Description: Adhesion of both sickle RBCs and leukocytes in SCD is believed dependent on endothelial activation. […] Murine aortic endothelial cells (MAECs) were prepared from C57BL/6 and NY-S (NY1DD) mice. In a static adhesion assay using WEHI monocytes activation of the endothelium as manifested by increasing monocyte adhesion can be quantified. MAECs prepared from C57BL/6 mice form a monolayer which is not highly activated as assessed by the small number of adherent monocytes. As a positive control for endothelial activation C57BL/6 MAECs were stimulated with murine TNFα (10 U/ml). […] Clearly, the endothelium of NY-S (NY1DD) sickle mice is in a state of activation at baseline.
Aortic endothelial cells from C57BL/6J and NY-S (NY1DD) mice were harvested from the aorta under sterile conditions. A monocyte adhesion assay that utilizes primary MAECs and WEHI78/24 cells were performed according to Hatley et al. WEHI cells are labeled with calcein-AM using standard methods described by the manufacturer (Molecular Probes). For the adhesion assay, MAECs were cultured to confluency in a 48-well plate and incubated with 35,000 calcein-labeled WEHI cells/well for 30 min at 37° C. Non-adherent cells were rinsed, and adherent cells were fixed with 1% glutaraldehyde. The number of adherent monocytes within a 10×10 eyepiece grid at 40× magnification was counted using an epifluorescence microscopy. […]

[2] = tested on: NY-S (NY1DD) mice; experiment: Gamma camera imaging of hypoxia-sensitive tracer BRU59-21 in lungs; type: in vivo; conditions: 3 hours hypoxia (10% O2)/1 hour reoxygenation; Alzet mini-pump, 10 ng/kg/min, O/N; untreated vs treated
Description: Animals were subject to 3 hours hypoxia (10% O2)/1 hour reoxygenation. After 30 minutes of reoxygenation the mice were given a bolus intra-jugular injection of BRU59-21 (˜300 μCi). At the end of the reoxygenation period planar gamma camera images were taken with a ten minute acquisition window. The images in FIG. 7 show tracer accumulation in the tissues of hypoxic C57BL/6 and NY-S (NY1DD) mice. […] There is a large non-specific signal present in the abdomen due to hepatic metabolism and clearance of the tracer via the intestinal tract. Anterior to the abdominal signal is a bilateral signal which is absent from the C57/B6 mice and localized to the lungs in the NY-S (NY1DD) mouse.
C57BL/6 and NY-S (NY1DD) mice were subject to 3 hour hypoxia/1 hour reperfusion (10% O2). Thirty minutes after the start of the reperfusion period the mice were anesthetized (ketamine 125 mg/kg; xylazine 12.5 mg/kg, IP) and given a bolus intra jugular injection of BRU59-21 (˜300 μCi). At the end of the reperfusion period planar gamma camera images were collected. Anesthetized mice were imaged side-by-side in planar mode directly on the inverted face of a low energy, high resolution (LEHR) collimator mounted on a Siemens Orbiter gamma camera (Siemens Medical Solutions USA, Inc., Malvern Pa.). […]

[3] = tested on: platelets; experiment: Platelet aggregation (singlet loss) in platelet-rich plasma after in vivo pretreatment, ADP activation; design: species or system NY-S (NY1DD) mice; conditions: pretreated in vivo, Alzet mini-pump, 10 ng/kg/min, O/N; all doses of ADP added in vitro
Description: Adenosine 5′-diphosphate (ADP) is a critical mediator of platelet activation. Two members of the P2Y-receptor family (P2Y1, P2Y12) are responsible for the initiation and amplification of the aggregation response.
Mice were first anesthetized with the use of a vaporizer (Vapomatic, A.M. Bickford, INC., Wales Center, N.Y.) delivering 1.5% isoflurane (Abbott Laboratories, Chicago, Ill.). The animals were ventilated with 100% oxygen (tidal volume 0.3 mL; rate 125 breaths/min; respiratory/expiratory ratio 1; positive end-expiratory pressure (PEEP) was between 5 and 10 cm H2O) at a low rate of 0.8 L/min via an animal ventilator (Columbus Instruments, Columbus, Ohio).
Platelet isolation. […]
Platelet aggregation assay—single particle counting. […] The reaction was quenched with glutaraldehyde (1%), and platelet aggregation then evaluated by the loss of platelet singlets, using a resistive-particle counter. The loss of platelet singlets was expressed as a percent value of the control platelet count (platelet count in PRP incubated for 10 minutes in 37° C. in the absence of shear forces).

[4] = tested on: NY-S (NY1DD) mice; experiment: Unrestrained whole-body plethysmography during hypoxic stress; type: in vivo; conditions: 3 hour hypoxic stress (8% O2), Alzet pump, 10 ng/kg/min, overnight
Description: Clinicians have disclosed that breathing disorders can occur in SCD patients during vaso-occlusive crisis (VOC). […] Pain-associated shallow breathing during sickle crisis may contribute to the pathogenesis of acute chest syndrome. To characterize the extent of hypoxia-induced lung injury in NY-S (NY1DD) mice, pulmonary function was assessed using unrestrained whole-body plethysmography during and after exposure to hypoxic air. Naïve NY-S (NY1DD) mice were compared to NY-S (NY1DD) mice which had been treated with ATL146e (Alzet pump, 10 ng/kg/min, overnight). […] Plexiglas chambers (4 in diameter) are connected to a direct airflow sensor (Buxco Max II, Buxco Electronics). Constant airflow through the chambers is maintained at 70 ml/min. The flow signals are amplified by a channel amplifier (EMKA Technologies), converted to a digital signal, and recorded using IOX software (EMKA Technologies). The respiratory parameters minute ventilation (MV, ml/min), respiratory frequency (f, breaths/min), expiratory time (TE, msec), and relaxation time (RT, msec) are calculated and plotted as change over time. The chambers are calibrated by injecting 1 ml of air. The mice are placed unrestrained into the chambers and after a 30 min adjustment period, respiratory activity is recorded while the animal breathes either ambient air or hypoxic gas (8% O2).

[5] = tested on: leukocyte interactions with the endothelium; experiment: Intravital microscopy of exteriorized cremaster muscle, leukocyte adhesion; type: in vivo, NY-S (NY1DD) mice; conditions: no hypoxia
Description: An exteriorized cremaster muscle preparation was used to study the microcirculation in vivo as a means of assaying the effect of the test compounds, e.g., ATL146e, on leukocyte interactions with the endothelium. […] In this experiment, mice were not stressed with hypoxia, but the manipulation of the cremaster tissue for microscopic examination itself produces some rolling and adherence of leukocytes, probably due to release of chemokines from damaged tissue. Adherent leukocytes were defined as those which moved less than one circumference in an observational period (30 seconds/vessel). […]
Microscopic observations were made on a Zeiss intravital microscope (Axioskop, Carl Zeiss, Inc., Thomwood, N.Y.) with a saline immersion objective (SW 40/0.75) visualized under bright field illumination. […] Randomly selected venules with diameters between 19 and 54 μm were recorded for 1.5 minutes.
A MicroMotion DC30 video compression card (Pinnacle Systems, Mountain View, Calif.) was used to digitize video recordings from a JVC HR-53600U VHS recorder into a Macintosh computer (Adobe Premiere software). Digitized video clips were analyzed with the public domain NIH image program with custom-written macros. […] Individual comparisons between groups were calculated using a one-tailed t test with p<0.05.

[6] = tested on: NY-S (NY1DD) mice; experiment: Pulmonary histology (H&E), hypoxia-induced vascular congestion; type: in vivo; conditions: 3 hour hypoxia (10% O2); Alzet mini-pump, 10 ng/kg/min, overnight, started prior to hypoxic stress
Description: Under normoxic conditions, while the lungs of the wild type mice are clear, there is a high incidence of focal vascular congestion in the NY-S (NY1DD) mice (FIGS. 6A & 6B, see arrows). The disseminated pink color throughout the section may be due to elevated numbers of possibly adherent capillary red cells. The extent of vascular congestion is exacerbated in the NY-S (NY1DD) mice following 3 hour of hypoxia (10% O2; FIG. 6c). The increased susceptibility of the NY-S (NY1DD) mice to hypoxia-induced lung injury is evidenced both as an increase in the total area of involvement and the size of the vessels congested (see arrow, FIG. 6C).

Row | Compound | number of monocytes captured (endothelial activation) [1] | lung-specific BRU59-21 signal intensity in thoracic cavity (qualitative) [2] | platelet activation in platelet rich plasma [3] | minute volume [4] | breathing frequency ([4]; n=2 each group) | leukocyte adhesion (adherent leukocytes/field) ([5]; bolus injection, intraperitoneal, 5 μg/kg, 30 minutes prior to cremaster exteriorization) | leukocyte adhesion (adherent leukocytes/field) ([5]; infusion, Alzet mini-pump, 10 ng/kg/min, overnight) | severity of hypoxia-induced vascular congestion in lung [6]
1 | TNFα | three-fold increase | – | – | – | – | – | – | –
2 | CCNC(=O)C1OC(n2cnc3c(N)nc(C#CCC4CCC(C(=O)OC)CC4)nc32)C(O)C1O (centres unmarked) [ATL146e, 4-{3-[6-Amino-9-(5-ethylcarbamoyl-3,4-dihydroxy-tetrahydro-furan-2-yl)-9H-purin-2-yl]-prop-2-ynyl}cyclohexanecarboxylic acid methyl ester] | – | significantly more lung-specific signal in the untreated mice | reduced to below control levels | respiratory stress of hypoxia was alleviated | significantly reduced | pronounced reduction in leukocyte adhesion | pronounced reduction in leukocyte adhesion | significantly reduced
